Measured values as given in the NIST ThermoML archive (doi:10.1021/je7000683).

Experiments:
[1] = activity coefficient (dimensionless); of the first substance listed, at infinite dilution; xn = mol fraction of the nth substance listed; conditions: Liquid, Chromatography, x1 = 0
[2] = for vapor or sublimation pressure: Liquid, Calculated from knudsen effusion weight loss
[3] = Molar enthalpy of transition or fusion; conditions: Crystal; Adiabatic calorimetry
[4] = molar heat capacity at constant pressure; conditions: 101.33 kPa, Small (less than 1 g) adiabatic calorimetry

O=C1CCCCCN1 [1-aza-2-cycloheptanone] + CCCCCC[n+]1ccn(C)c1.O=S(=O)([N-]S(=O)(=O)C(F)(F)F)C(F)(F)F
Conditions	activity coefficient
[1], 427.5 K	0.49

CCCCCC[n+]1ccn(C)c1.O=S(=O)([N-]S(=O)(=O)C(F)(F)F)C(F)(F)F
Conditions	Normal melting temperature [°C]
[2], Crystal, visual observation	-1

ON=C1CCCCC1 [cyclohexanone oxime] + CCCCCC[n+]1ccn(C)c1.O=S(=O)([N-]S(=O)(=O)C(F)(F)F)C(F)(F)F
[1]
Conditions	activity coefficient
375.4 K	2.41
386 K	2.22
396.5 K	2.03
407 K	1.84
417.1 K	1.67
417.6 K	1.61
427.5 K	1.51
438 K	1.28

O=C1CCCCCN1 [1-aza-2-cycloheptanone]
[2]
Conditions	vapor or sublimation pressure [kPa]
315.3 K	0.00286
320.3 K	0.00442
331.9 K	0.01144

Conditions	Triple point temperature [K]	molar heat capacity at constant pressure [J/K/mol]
[2], Crystal, Adiabatic calorimetry	342.22	–
[4], 316 K, Crystal	–	168
[4], 319 K, Crystal	–	169.4
[4], 322 K, Crystal	–	171.1
[4], 323 K, Liquid	–	232.3
[4], 325 K, Crystal	–	173
[4], 326 K, Liquid	–	233.8
[4], 328 K, Crystal	–	175.1
[4], 329 K, Liquid	–	235.3
[4], 331 K, Crystal	–	177.5
[4], 332 K, Liquid	–	236.7
[4], 334 K, Crystal	–	180.1
[4], 335 K, Crystal	–	181
[4], 335 K, Liquid	–	238.2
[4], 338 K, Liquid	–	239.7
[4], 341 K, Liquid	–	241.2
[4], 344 K, Liquid	–	242.7
[4], 347 K, Liquid	–	244.2
[4], 350 K, Liquid	–	245.7
[4], 353 K, Liquid	–	247.1
[4], 356 K, Liquid	–	248.6
[4], 359 K, Liquid	–	250.1
[4], 362 K, Liquid	–	251.6
[4], 365 K, Liquid	–	253.1
[4], 368 K, Liquid	–	254.6

Conditions	Molar enthalpy of transition or fusion [kcal/mol]
[3]	3.862
